# Data: patent US20250161273A1, “PHARMACEUTICAL COMPOSITION COMPRISING DIPHENYLDIAZOLE DERIVATIVES AND METHODS OF USE” (MODAG GMBH, priority 2022, published 2025)
# Where two headings read alike, the source gives them in different places.
# Columns and labels:
# [1] = test system: oligomer accumulation; conditions: range of different mouse models; cited from earlier work
# [2] = phase 1 first-in-human trial, food effect study (FES) PK; format: in vivo; conditions: for AUC(0-t) / Cmax / half-life / Tmax: 150 mg; for half-life: read-out: T1/2 (geometric mean) (converted)
# Procedure: Anle138b was studied in a single-centre, double-blind, randomised, placebo-controlled single ascending dose (SAD) and multiple ascending dose (MAD) study in healthy subjects. Eligible participants were randomly assigned (1:1 for sentinel subjects and 1:5 for main group) to placebo or anle138b (dose ranging from 50 mg to 300 mg per day), respectively. In addition, the effect of food on the pharmacokinetics (PK) of anle138b in healthy subjects was examined at doses of 150 mg per day (FES, food effect study). Participants were randomized to treatment sequence (fed→fasted) or (fasted→fed). Treatment for the SAD, MAD and FES arms of the study was administered orally in hard gelatin capsules containing either 10 mg or 30 mg of anle138b with excipient (i.e., lauroyl polyoxyl-32 glycerides) or excipient only. The primary endpoints were safety and tolerability, the secondary endpoint was pharmacokinetics. Data from all randomized individuals were evaluated. [Clinicaltrials.gov-identifier: NCT04208152. EudraCT-number: 2019-004218-33]
# This dose was administered either i) after a standard FDA-approved high-fat breakfast or ii) in the fasted state, i.e., fasted from all food and drink (except water) for a minimum of 8 h prior to dosing. In total, one cohort of 12 subjects was randomised in a 1:1 ratio to 2 treatment sequences (fed→fasted) or (fasted→fed). A minimum washout of at least 5 half-lives of anle138b between each dose was assured.
# Secondary outcome measures were the oral PK of single (SAD) and multiple (MAD) ascending doses of anle138b in the fasted state as well as the effect of co-administration with food on the PK of anle138b. To this end PK blood samples were taken at day 1 (and for MAD day 7) pre-dose and at 0.5, 1, 1.5, 2, 3, 4, 6, 8, 10, 12, 16 and 20 h post-administration, at days 2 to 6 pre-dose only (MAD) and 24, 30, 36 and 48 h post final dose. Analysis of anle138b in plasma was done at Aptuit. Time point of last quantifiable data was seen to increase with an increase in dose as follows: SAD: from the 50 mg dose (subjects ranged between 8-24 h) to the 300 mg dose (subjects ranged between 36-48 h). MAD: from the 100 mg dose (subjects ranged between 8-36 h) to the 300 mg dose (subjects ranged between 20-48 h). In FES, subjects ranged between 24-48 h.
# where μ=[…] is the intercept and β is the slope from the linear model. Using this model it is possible to estimate β (measure of dose proportionality) and obtain 90% confidence interval (CI) for β (Gough, 1995; Smith, 2000). The estimate of β together with its 90% CI (βI, βu) was used to quantify the degree of non-proportionality. In MAD, formal statistical analysis was performed on the PK parameters AUC0-tau and Cmax to assess dose accumulation. Log-transformed AUC0-tau and Cmax was subjected to a mixed-effects model with treatment (dose level), day (day 1 or 7) and treatment-by-day interaction as fixed effects and subject as a random effect. The adjusted means obtained from the model, including differences for each comparison of interest and the associated 90% CIs, was back-transformed on the log scale to obtain adjusted geometric means, adjusted geometric mean ratios (GMRs) and 90% CIs of the ratio. The GMRs and 90% CIs were provided for each treatment and overall, i.e., day 7/day 1. In the FES, formal statistical analysis was performed on the PK parameters Cmax, AUC0-last and AUC0-24 to assess the effects of food on anle138b. The PK parameters underwent a natural logarithmic transformation and were analysed using a mixed-effect model with terms for treatment (i.e., prandial state), period and sequence as fixed effects and subject nested within sequence as a random effect. Adjusted GMRs and 90% CIs for the adjusted GMRs for the comparison between fed and fasted states were provided where the ratios are defined as fed/fasted.
# [3] = rat formulation study, PK after single oral administration; format: in vivo; conditions: Sprague-Dawley, plasma, male rats, 10 mg/kg single oral, read-out: Tmax, all four formulations
# Procedure: A rat study was undertaken to assess the pharmacokinetics of anle138b in male Sprague Dawley rats (n=3/arm) following single oral administration of different formulations of anle138b, as follows, in Table 5.
# Male Sprague Dawley (SD) rats (n=3/formulation) sourced from Charles River Italia were kept for 5 days acclimatization. Feeding regimen was ad libitum except on the day of dosing when the food was supplied 4 hours post dosing, having been removed the evening beforehand. Animals were orally dosed with anle138b (10 mg/kg) formulated as above. An individual serial plasma profile was drawn from each animal over a period of 24 hours after dosing.
# The dose formulations were administered orally via gastric gavage (2 ml/kg); any remaining formulation after dosing was discarded.
# After oral administration, blood samples were collected from the tail vein of each rat at the time-points detailed: Pre dose, 0.5, 1, 2, 4, 6, 8 and 24 hours after dosing […]
# PK profiling was performed by non-compartmental analysis using Phoenix™ WinNonlin. […] The maximum observed peak plasma concentration (Cmax) and the time at which it was observed (Tmax) were determined by inspection of the observed data.
# The relative bioavailability ([…]) of anle138b between dose formulations was calculated by comparing systemic exposure (AUC0-t), and are reported rounded to at least 2 significant figures. […]
structure (smiles),measurement,setting,value
"Brc1cccc(-c2cc(-c3ccc4c(c3)OCO4)n[nH]2)c1 [anle138b, 3-(1,3-benzodioxol-5-yl)-5-(3-bromophenyl)-1H-pyrazole]",effect in mouse models in vivo (in words),[1],"strongly inhibited oligomer accumulation, neuronal degeneration, and disease progression"
same,effect of food on Cmax (in words),"[2]; 150 mg single dose, fed vs fasted",decreased by about half
same,AUC(0-t),"[2]; human, plasma, oral, 150 mg single dose, fasted, read-out: AUC0-24 range",433 to 2720 ng·h/mL
same,Cmax,"[2]; human, plasma, oral, 150 mg single dose, fasted, read-out: Cmax range",225 to 1420 ng/mL
same,AUC(0-t),"[2]; human, plasma, oral, 150 mg single dose, fed, read-out: AUC0-24 range",378 to 1920 ng·h/mL
same,Cmax,"[2]; human, plasma, oral, 150 mg single dose, fed, read-out: Cmax range",110 to 479 ng/mL
same,bioavailability,"[2]; human, plasma, oral, 150 mg single dose, 90% CI: 61%, 84%, read-out: dose bioavailable in the fed state compared to the fasted state",~74%
same,AUC(0-t),"[2]; human, plasma, po, healthy volunteers, single oral 150 mg, fasted, read-out: AUC(0-24) (geometric mean)",~896 ng·h/mL
same,AUC(0-t),"[2]; human, plasma, po, healthy volunteers, single oral 150 mg, fasted, read-out: AUC(0-last) (geometric mean)",888 ng·h/mL
same,Cmax,"[2]; human, plasma, po, healthy volunteers, single oral 150 mg, fasted, read-out: Cmax (geometric mean)",~442 ng/mL
same,half-life,"[2]; human, plasma, po, healthy volunteers, single oral 150 mg, fasted",11.3 h
same,Tmax,"[2]; human, plasma, po, healthy volunteers, single oral 150 mg, fasted, read-out: Tmax (median)",1.25 h
same,Tmax,"[2]; human, plasma, po, healthy volunteers, single oral 150 mg, fasted, read-out: Tmax (range)",1 to 2 h
same,Tmax,"[2]; human, plasma, po, healthy volunteers, single oral 150 mg, fed (high-fat breakfast), read-out: Tmax (median)",3 h
same,Tmax,"[2]; human, plasma, po, healthy volunteers, single oral 150 mg, fed (high-fat breakfast), read-out: Tmax (range)",1.5 to 3 h
same,AUC(0-t),"[2]; human, plasma, po, healthy volunteers, single oral 150 mg, fed, read-out: AUC(0-24) (geometric mean)",~641 ng·h/mL
same,AUC(0-t),"[2]; human, plasma, po, healthy volunteers, single oral 150 mg, fed, read-out: AUC(0-last) (geometric mean)",668 ng·h/mL
same,Cmax,"[2]; human, plasma, po, healthy volunteers, single oral 150 mg, fed, read-out: Cmax (geometric mean)",~196 ng/mL
same,half-life,"[2]; human, plasma, po, healthy volunteers, single oral 150 mg, fed",15.2 h
same,ratio of fasted AUC(0-24) to fed AUC(0-24),"[2]; single dose, healthy subject",less than 1.5
same,Tmax,[3],2 to 8 h
